Measured values published in ChEMBL document CHEMBL1149506, “Synthesis and in vitro biological evaluation of aryl boronic acids as potential inhibitors of factor XIa” (Bioorg Med Chem Lett, 2006).
Where a name gives a salt, the structure may show the parent alone.

Tests used:
Coagulation factor XI = Coagulation factor XI (Homo sapiens, UniProt P03951); assay: Inhibition of f11a
Coagulation factor X = Coagulation factor X (Homo sapiens, UniProt P00742); assay: Inhibition of f10a
Prothrombin = Prothrombin (Homo sapiens, UniProt P00734); assay: Inhibition of thrombin
Trypsin = Trypsin (Homo sapiens, UniProt P07477+P07478+P35030); assay: Inhibition of trypsin; format: protein assay
Homo sapiens [1] = species: Homo sapiens; assay: Selectivity for f11a over f10a
Homo sapiens [2] = species: Homo sapiens; assay: Selectivity for f11a over trypsin

Chain of Coagulation factor XI (P03951 19-387 limits assumed): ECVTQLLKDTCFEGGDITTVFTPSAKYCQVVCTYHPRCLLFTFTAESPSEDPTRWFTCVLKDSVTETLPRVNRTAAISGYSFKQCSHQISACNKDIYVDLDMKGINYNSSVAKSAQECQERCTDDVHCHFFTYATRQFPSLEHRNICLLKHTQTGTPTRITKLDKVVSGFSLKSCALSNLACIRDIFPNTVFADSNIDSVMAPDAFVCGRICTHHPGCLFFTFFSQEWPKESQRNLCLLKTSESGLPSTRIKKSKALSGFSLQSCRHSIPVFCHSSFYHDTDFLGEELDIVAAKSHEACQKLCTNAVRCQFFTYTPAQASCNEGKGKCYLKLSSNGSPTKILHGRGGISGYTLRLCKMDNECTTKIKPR
Chain of Coagulation factor XI (P03951 388-625 limits assumed): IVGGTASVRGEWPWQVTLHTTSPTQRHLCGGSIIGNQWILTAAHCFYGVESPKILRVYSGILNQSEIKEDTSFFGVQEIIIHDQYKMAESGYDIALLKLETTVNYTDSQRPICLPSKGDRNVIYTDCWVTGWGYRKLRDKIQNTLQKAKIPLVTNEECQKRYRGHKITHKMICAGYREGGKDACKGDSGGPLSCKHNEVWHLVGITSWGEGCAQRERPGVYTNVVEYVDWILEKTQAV
Chain of Coagulation factor X (P00742 41-179 limits assumed): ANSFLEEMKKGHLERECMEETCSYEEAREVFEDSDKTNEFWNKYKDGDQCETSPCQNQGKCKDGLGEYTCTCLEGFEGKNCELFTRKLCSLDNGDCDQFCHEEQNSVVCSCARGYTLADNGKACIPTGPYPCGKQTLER
Chain of Coagulation factor X (P00742 235-488 limits assumed): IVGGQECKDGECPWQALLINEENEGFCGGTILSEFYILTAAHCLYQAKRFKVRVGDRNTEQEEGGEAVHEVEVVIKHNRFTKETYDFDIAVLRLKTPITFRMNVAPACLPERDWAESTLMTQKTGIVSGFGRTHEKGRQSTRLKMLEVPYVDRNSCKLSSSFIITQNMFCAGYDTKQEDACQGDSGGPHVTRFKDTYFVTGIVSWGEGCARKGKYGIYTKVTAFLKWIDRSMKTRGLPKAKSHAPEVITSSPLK

IC50 (Coagulation factor XI) | IC50 (Coagulation factor X) | IC50 (Prothrombin) | IC50 (Trypsin) | Selectivity ratio (Homo sapiens [1]) | Selectivity ratio (Homo sapiens [2]) | Compound
120 µM | – | – | – | – | – | N=C(N)c1ccccc1 [BENZAMIDINE HYDROCHLORIDE]
5.9 µM | 129 µM | 5.5 µM | 2.3 µM | – | – | CC1(C)OB(c2ccc(NC(=N)N)cc2)OC1(C)C.O=C(O)C(F)(F)F
1.4 µM | 43.6 µM | 12.3 µM | > 200 µM | 30 | 200 | CC1(C)OB(c2ccc(C(NC(=N)N)OC(=O)c3cccnc3)cc2)OC1(C)C.O=C(O)C(F)(F)F (stereo not given)
24.7 µM | > 200 µM | 129 µM | > 200 µM | 10 | 10 | CC1(C)OB(c2ccc(CN=C(N)N)cc2)OC1(C)C
22 µM | > 200 µM | 146 µM | > 200 µM | 10 | 10 | N=C(N)NCc1ccc(B(O)O)cc1.O=C(O)C(F)(F)F
7.3 µM | 175 µM | 30.8 µM | 20.3 µM | 25 | 3 | CC1(C)OB(c2ccc(CCN=C(N)N)cc2)OC1(C)C.O=C(O)C(F)(F)F
77.3 µM | – | – | – | – | – | NCc1ccc(B(O)O)cc1
